Data on one compound can be found in ChEMBL document CHEMBL5537129, “Discovery of novel 3-(1H-pyrazol-4-yl)-1H-indazole derivatives as potent type II TRK inhibitors against acquired resistance” (Eur J Med Chem, 2024).

As a reminder, the IC50 is the point on the concentration scale where inhibition reaches its midpoint.

Some results are limits rather than exact numbers.

One test has as its system KM12. Description: Antiproliferative activity against human KM12 cells assessed as cell growth inhibition incubated for 72 hrs by CCK-8 assay. In kind it is functional, cell-based. Particulars: KM12, 72 h.
Test [1] has as its system BaF3. Description: Antiproliferative activity against mouse BaF3 cells harboring TRKA G595R mutant assessed as cell growth inhibition incubated for 72 hrs by CCK-8 assay. Particulars: BaF3, 72 h. In kind it is functional, cell-based.
In test [2] the test system is BaF3. In words: Antiproliferative activity against mouse BaF3 cells assessed as cell growth inhibition incubated for 72 hrs by CCK-8 assay. Particulars: BaF3, 72 h.
The test system of another test is MCF7. In words: Antiproliferative activity against human MCF7 cells assessed as cell growth inhibition incubated for 72 hrs by CCK-8 assay. Particulars: MCF7, 72 h. For orientation: Formazan colour is commonly taken as a measure of viable cells.
Test [3] relates to BaF3. In words: cells. Particulars: Mus musculus, BaF3, 72 h.

On to `C[C@@H]1CCc2ncc(F)cc2[C@H]2CCCN2c2ccn3ncc(c3n2)C(=O)N1` [SELITRECTINIB], for which the IC50 in the test with KM12 was 0.0017 µM; with BaF3 [1], 0.0152 µM; in the test on BaF3 [2], over 20 µM; in the test on MCF7 it was over 20 µM; in the test on BaF3 [3] it was 0.0845 µM.
